The source of these data is article PMC11672316, “Identification of ANXA1 as a Novel Upstream Negative Regulator of Notch1 Function in AML” (Advanced Science, 2024).

What all share (assay type): cell-based, human
Experiment [1] deals with NICD. Put plainly: Western blotting of NICD after MG132 treatment. Conditions: AML cells (KG1a and HL60). Here is the method: (§1) Cells were lysed in a lysis buffer containing 0.5 mM EDTA, 20 mM HEPES and 2% SDS. Samples mixed with SDS-gel loading buffer were loaded onto SDS-PAGE gel and transferred onto polyvinylidene fluoride (PVDF) microporous membranes (Millipore). Membranes were blocked with 5% nonfat milk in TBST (20 mM Tris-HCl, 150 mM NaCl, 0.1% Tween-20 with pH 7.5) for 2 hours and incubated with primary antibodies (Table S6, Supporting Information) at 4°C overnight. The membranes were incubated with a secondary antibody (Table S6, Supporting Information) followed by detection in an imaging system (ChampChemi 910, SageCreation) using the ECL reagent solution (SageCreation).
On the technique in general: A western blot detects proteins with antibodies after separation by electrophoresis.

Experiment [2] deals with NICD. Kind of experiment: Co-immunoprecipitation, NICD-bound ubiquitin. Conditions: KG1a- and HL60- shANXA1 or shControl cells; MG132 0 or 6 h; Figure 3C. As for the experimental part: For co-immunoprecipitation (Co-IP) assay, the cells were lysed with NP-40 lysis buffer (Beyotime) containing 1 mM PMSF for 30 min at 4°C. The total protein concentrations were measured using BCA protein assay kit (Solarbio) according to the instructions. The lysates were divided into several tubes and precleared by adding protein A/G-agarose (Santa Cruz) for 30 min at 4°C. The samples were centrifuged to remove the precipitation and incubated with Notch1 antibody or normal rabbit IgG (Table S6, Supporting Information) for 2 hours, and then incubated with protein A/G-agarose overnight. The complexes were washed with NP-40 lysis buffer four times before being eluted in SDS-gel loading buffer and detected by western blotting.

The next experiment concerns p15. Put plainly: Western blotting of p15 after RO4929097 treatment. The conditions noted are these: 24 h, Figure 4D. Here is the method: as §1
A further experiment relates to KG1a-shANXA1 cells. Kind of experiment: Cell counting proliferation assay, KG1a-shANXA1. Conditions: 24 h, Figure 4E, three independent experiments. As for the experimental part:
(§2) For the cell counting assay, transfected cell lines or parental cells were seeded in a cell culture plate at the same density and cultured with RPMI-1640 medium, which sometimes added drugs. The number of cells was counted by a cell counter (Countstar BioTech IC 1000, Countstar) after indicated time.

The subject of a further experiment is HL60-shANXA1 cells. Kind of experiment: Cell counting proliferation assay, HL60-shANXA1. Conditions: 24 h, Figure 4E, three independent experiments. As for the experimental part: as §2
For a further experiment, the system named is HL60 cells. Put plainly: MTT assay, HL60 (FPR blocking or activation). Conditions: Figure S14, three independent experiments. As for the experimental part: (§3) For Methylthiazolyldiphenyl-tetrazolium bromide (MTT) assay, cells were seeded in a 96-well plate and incubated with drugs or peptides. At the indicated time point, each well was added with 10 μL MTT solution (5 mg mL^-1, Sigma-Aldrich) and then incubated at 37°C in 5% CO2 for 4 hours. The medium was replaced by DMSO with 150 μL to dissolve the formazan crystals.
(In general: Tetrazolium dyes change colour on reduction, which living cells bring about.)

Another experiment concerns KG1a cells. Put plainly: MTT assay, KG1a (FPR blocking or activation). The conditions noted are these: Figure S14, three independent experiments. Here is the method: as §3

Ends that are not written are not given here. Peptide text beside a SMILES is read from it. * marks the point of attachment. Cbz = O=C(OCc1ccccc1)*

With `CC(C)C[C@@H](C=O)NC(=O)[C@H](CC(C)C)NC(=O)[C@H](CC(C)C)NC(=O)OCc1ccccc1` [MG132] (Cbz-Leu-Leu-Leu-aldehyde), the “NICD expression level” value with NICD [1] (ANXA1 knockdown group) is given as “minimally affected the expression level of NICD in the ANXA1 knockdown group”. Moreover, the “NICD degradation” value with NICD [1] (shControl, 3 h) is listed as “significantly reversed the ANXA1‐induced NICD degradation after 3 h of treatment in the control group”. The “ubiquitin bound to NICD” value in the experiment with NICD [2] is reported as “ubiquitin was bound to NICD significantly in the shControl cells after MG132 treatment rather than ANXA1 knockdown cells”.
For the compound `CC(C)(C(=O)NCC(F)(F)C(F)(F)F)C(=O)N[C@@H]1C(=O)Nc2ccccc2-c2ccccc21` [RO4929097], the “p15 expression” value with p15 (HL60 with ANXA1 knockdown) is “inhibited the expression of p15 in KG1a and HL60 cells with ANXA1 knockdown”; in the experiment on p15 (KG1a with ANXA1 knockdown), “inhibited the expression of p15 in KG1a and HL60 cells with ANXA1 knockdown”. For the same compound, the “cell proliferation” value with KG1a-shANXA1 cells and in the experiment on HL60-shANXA1 cells was “promoting the proliferation of AML cells” in each case.
Consider “Ac2-26: N-terminal ANXA1 peptide, FPR agonist (Ac-AMVSEFLKQAWFIENEEQEYVQTVK; UniProt P04083 2-26, looked up, fragment)”, for which the “effect on proliferation” value in the experiment with HL60 cells and in the experiment with KG1a cells was “neither the FPR antagonist nor the N‐terminal ANXA1 peptide Ac2‐26 affected the proliferation of AML cells” throughout.
